Results taken from patent US20230348459A1, “PYRROLIDINE COMPOUND AND USE THEREOF” (SIMCERE PHARMACEUTICAL CO., LTD., priority 2020, published 2023).

Columns and labels:
[1] = Plasma protein binding rate, equilibrium dialysis, monkey plasma; type: in vitro ADME; settings: pH 7.4, Cynomolgus monkey plasma, 6 hours dialysis
Protocol: The protein binding rate of the compounds of the present invention in the plasma of five species (human, monkey, dog, rat and mouse) was determined by the following test method.
• 1. Human plasma (BioIVT), beagle dog plasma (BioIVT), SD rat plasma (BioIVT), CD-1 mouse plasma (BioIVT); • 2. 96-well equilibrium dialysis plate (HTDialysis LLC, Gales Ferry, CT, HTD96B), equilibrium dialysis membrane (MWCO 12-14 K, #1101); • 3. Positive control compound warfarin; • 4. ABI QTrap 5500 liquid chromatography-mass spectrometry.
1. Preparation of a buffer with a concentration of 100 mM sodium phosphate and 150 mM NaCl: an alkaline solution with a concentration of 14.2 g/L Na2HPO4 and 8.77 g/L NaCl was prepared with ultrapure water, and an acidic solution with a concentration of 12.0 g/L NaH2PO4 and 8.77 g/L NaCl was prepared with ultrapure water. The alkaline solution was titrated with the acidic solution to pH 7.4 to prepare a buffer with a concentration of 100 mM sodium phosphate and 150 mM NaCl.
2. Preparation of dialysis membrane: the dialysis membrane was soaked in ultrapure water for 60 minutes to separate the membrane into two pieces, then soaked in 20% ethanol for 20 minutes, and finally soaked in the buffer used for dialysis for 20 minutes.
3. Preparation of plasma: the frozen plasma was quickly thawed at room temperature, then the plasma was centrifuged at 3,220 g at 4° C. for 10 min to remove clots, and the supernatant was collected into a new centrifuge tube. The pH of the plasma was measured and recorded, and the plasma with pH of 7-8 was used.
3. Preparation of compound-containing plasma samples: 10 mM stock solution of compounds of the present invention or positive control compounds were diluted with DMSO to obtain 200 µM working solution. […]
The peak areas of the compounds on the buffer side and the plasma side were determined. […]
All the data was calculated by the Microsoft Excel software. The plasma protein binding rate values of the compounds of the present invention were calculated.

MCF7 cells = test: Inhibition of the proliferation of MCF7 cells (CellTiter-Glo); type: cell-based; settings: Homo sapiens, MCF7, 168 h; 7 days treatment; read-out: MCF-7 cell proliferation inhibition IC50
Protocol: The purpose of the experiment is to determine the inhibitory effect of the compounds of the present invention on the proliferation of MCF7 cells in vitro, and to evaluate the activity of the compounds according to IC50 and maximum inhibitory efficiency.
MCF7 cells (ATCC, HTB-22) were cultured in DMEM (Gibco, 11995-065) complete medium containing 10% fetal bovine serum. On the first day of the experiment, MCF7 cells were inoculated in a 384-well plate at a density of 500 cells/well using the complete medium, and cultured in a 37° C., 5% CO2 cell incubator overnight. The next day, the compounds to be tested were added for drug treatment, and the compound solution with a stock concentration of 10 mM was diluted with Echo550 (Labcyte Inc.) and transferred to each cell culture well. Each compound with the starting concentration for treatment of 100 nM in cells was subjected to 3-fold gradient dilution with 9 concentration points. A blank control containing 0.3% DMSO was set, and double replicate wells as controls were set at each concentration point. The culture was cultured in a 37° C., 5% CO2 cell incubator for 7 days, and the cell culture plate was taken out on day 8.

Compound | fraction unbound at 6 h, 1 µM [1] | IC50 (MCF7 cells)
C[C@@H]1Cc2c([nH]c3ccccc23)C(c2c(F)cc(N[C@H]3CCN(CCCF)C3)cc2F)N1CC(F)(F)F (stereo in doubt) [Example 4, (S)-N-(3,5-difluoro-4-((1S,3R)-3-methyl-2-(2,2,2-trifluoroethyl)-2,3,4,9-tetrahydro-1H-pyridino[3,4-b]indol-1-yl)phenyl)-1-(3-fluoropropyl)pyrrolidin-3-amine] | 0.002 | 0.23 nM
C[C@@H]1Cc2c([nH]c3ccccc23)C(c2c(F)cc(N[C@H]3CCN(CCCF)C3)cc2F)N1CC(F)(F)CO (stereo in doubt) [Example 7, 3-((1S,3R)-1-(2,6-difluoro-4-(((S)-1-(3-fluoropropyl)pyrrolidin-3-yl)amino)phenyl)-3-methyl-3,4-dihydro-1H-pyridino [3,4-b]indole-2(9H)-yl)-2,2-difluoropropane-1-ol] | 0.023 | 0.12 nM
C[C@@H]1Cc2c([nH]c3ccccc23)[C@@H](c2ccc(N[C@H]3CCN(CCCF)C3)cn2)N1CC(F)(F)F [Example 3, N-((S)-1-(3-fluoropropyl)pyrrolidin-3-yl)-6-((1S,3R)-3-methyl-2-(2,2,2-trifluoroethyl)-2,3,4,9-tetrahydro-1H-pyridino[3,4-b]indol-1-yl)pyridine-3-amine] | 0.022 | 0.27 nM
